Experimental data published in patent publication US20240050389A1, “TREATMENT OF IDIOPATHIC PULMONARY FIBROSIS” (priority 2020, published 2024).

How the values were obtained:
[1] = system: primary human lung fibroblasts; experiment: Seahorse mitochondrial stress test (OCR) of human lung fibroblasts cultured with itaconate; type: cell-based; conditions: IPF HLFs (increased vs healthy HLFs), 24 h incubation with itaconate
[2] = system: primary human lung fibroblasts; experiment: JULI-Stage proliferation assay; type: cell-based; conditions: 10 mM itaconate, over 72 h
Description: (§1) Primary human lung fibroblasts were seeded in 96-well plate for proliferation assay (5,000 per well) or 24-well plate for wound healing assay and serum-starved overnight prior to treatment with itaconate in complete DMEM for 48-72 hrs. For wound healing assays, a standardised scratch was applied in each well using a p10 pipette tip. Images were taken in JULI-Stage system (NanoEntek) at three to five positions per well every 30 minutes and proliferation rate or wound closure were calculated using JU LI-Stage software (NanoEntek).
(§2) Human lung fibroblasts were cultured in media alone or supplemented with itaconate and assessed after 24 h-72 h. […] To assess the ability of itaconate to limit fibrosis related functions of HLFs, proliferation and wound healing assays were carried out in the presence or absence of itaconate.

[3] = system: primary human lung fibroblasts; experiment: JULI-Stage wound healing (scratch) assay; type: cell-based; conditions: healthy HLFs, 10 mM itaconate, over a 48 h period
Description: as §1, §2

[4] = system: healthy human primary lung fibroblasts; experiment: Real-time PCR gene expression in fibroblasts cultured with itaconate; type: cell-based; conditions: healthy HLFs, 10 mM itaconate, 24 h
Excerpt: (§3) Primary human lung fibroblasts were isolated from lung resections of patients undergoing lung cancer surgery or lung transplantation performed after informed consent as approved by an external Research Ethics Committee (REC 15/SC0101) according to the Royal Brompton Hospital protocol (Royal Brompton & Harefield NHS Foundation Trust, 2016) and cultured in complete Dulbecco's modified eagle medium (10% FBS, 100 U/ml penicillin/streptomycin) (Gibco, ThermoFisher) to passage four. Human bronchial epithelial cells (HBE) were obtained from bronchial brushings during the bronchoscopy after informed consent and approved by an external Research Ethics Committee for ILD subjects (Ref. Nos. 10/H0720/12 and 15/SC0101). HBEs were cultured in bronchia.1 e thelial growth (BEGM) medium (Lonza) to passage four. MACS enriched human AM were cultured in complete RPMI (10% FBS, 100U/ml penicillin/streptomycin, Gibco, ThermoFisher) for 24 hrs. Fibroblasts and AM were cultured with 10 mM itaconate in complete medium for 24hrs prior to cell lysis in RLT buffer (QIAGEN) containing 1% 2-Mercaptoethanol (Sigma Aldrich).

[5] = Tolerability of inhaled (oropharyngeal) itaconate in naïve mice; type: in vivo; conditions: inhaled dose of 0.25 mg/kg
Description: FIG. 18: Exogenous itaconate is anti-fibrotic. (A-C) Total BAL count, percentage of eosinophils (B) and Percentage of neutrophils (C) of PBS or itaconate dosed mice (0.25-10 mg/kg, oropharyngeal), 24 h post administration (n=4 per group). Data presented as mean±S.D.; Significance was tested by ordinary one-way ANOVA with Sidak's multiple comparison test, **P<0.01.
In order to address whether inhaled itaconate is anti-fibrotic, it was first determined a dose of itaconate that would not provoke an inflammatory response in murine airways. […] We administered inhaled (OPN) itaconate or PBS twice a week for two weeks during the fibrotic phase (starting at day 10 post bleomycin) to WT mice (FIG. 7A); this dosing strategy is in accordance with the American Thoracic guidelines for preclinical assessment of potential therapies for IPF (Jenkins et al., 2017). Subsequently pathology, fibrosis and lung function at d21 post bleomycin were assessed.

[6] = system: bleomycin induced pulmonary fibrosis; experiment: Therapeutic inhaled itaconate in bleomycin mouse model; type: in vivo; conditions: 0.25 mg/kg oropharyngeal twice a week for two weeks from day 10 post bleomycin, WT mice
Description: Unless otherwise stated, all mice were between 8 and 12 weeks of age. Mice were housed in specific-pathogen-free conditions and given food and water ad libitum. All procedures were approved by the United Kingdom Home Office and conducted in strict accordance with the Animals (Scientific Procedures) Act 1986. […] All surgery was performed under ketamine and sodium pentobarbital anaesthesia and all efforts were made to minimize suffering. Mice were administered either 0.05U (1U/ml solution dissolved in PBS) of bleomycin sulphate (Sigma Aldrich) or 50 μl PBS via the oropharyngeal route at day 0 and culled after 7, 21 or 42 days. For therapeutic experiments mice were administered 0.25 mg/kg (1 mM solution dissolved in PBS, 50 μl) itaconic acid (Sigma Aldrich) or PBS via the oropharyngeal route twice a week, beginning 10 days after of bleomycin administration.
Lung function measurements were performed using the Flexivent system (Scireq, Montreal, Canada). After induction of anaesthesia with an i.p. injection of Pentobarbitone (50 mg/Kg, Sigma, UK) and i.m. injection of Ketamine (200 mg/Kg) (Fortdodge Animal Health Ltd, Southampton, UK), mice were tracheotomised and attached to the Flexivent ventilator via a blunt-ended 19-gauge needle. Mice were ventilated using the following settings; tidal volume of 7 ml/Kg body weight, 150 breaths/minute; positive end-expiratory pressure approximately 2 cm H2O. Standardisation of lung volume history was done by performing two deep inflations. Subsequently, measurements of dynamic resistance, dynamic elastance and dynamic compliance were determined using the snapshot-150 perturbation, a single frequency sinusoidal waveform. Resultant data was fitted using multiple linear regression to the single compartment model to determine the above parameters.
Paraffin-embedded sections (4 μm) of lungs (apical lobe) were stained with hematoxylin/eosin (H&E) and Sirius Red. For assessment of fibrosis, the semi-quantitative Ashcroft scoring system was used as previously described (Hubner et al., 2008, Biotechniques, 44(4): 507-11). All scoring and measurements were performed by 3-5 blinded independent observers.
Total RNA was reverse transcribed into cDNA using the High Capacity cDNA Reverse Transcription kit (Life Technologies), or GoScript reverse transcription system (Promega) for AMs, according to manufacturer's instructions. Real-time PCR was performed using fast-qPCR mastermix (Life technologies) on a Viia-7 instrument (Applied Biosciences) with Taqman primers for murine acod1, col-1α1, col3α1, col4α1, fn1, mmp2 or human acod1, cd163, fn1, IL-16, mmp1, mmp9 using actb (Life Technologies) as housekeeping gene.

[7] = system: AMs from IPF patients; experiment: Culture of AMs from IPF patients with itaconate; type: cell-based, human; conditions: AMs from IPF patients cultured with itaconate
Excerpt: as §3
1×10^7 BAL cells were stained with anti-CD206 (Biolegend) and Human TruStain FcX block (Biolegend) for 15 minutes at 4° C. in 0.5% FBS/2 mM EDTA in PBS prior to incubation with MACS anti-Cy7 microbeads (Miltenyi Biotec) for 15 minutes at 4° C. […]

Structure (SMILES): C=C(CC(=O)O)C(=O)O [itaconate, 2-methylidenebutanedioic acid]
- maximal respiration [1]: ameliorated
- spare respiratory capacity [1]: ameliorated
- proliferative capacity ([2]; HLFs from IPF patients): significantly reduced
- proliferative capacity ([2]; HLFs from healthy donors): significantly reduced
- ability to close a standardized wound [3]: decreased
- gene expression of FN-1 [4]: downregulated
- gene expression of IL-1β [4]: downregulated
- tolerability (no inflammatory response in murine airways) ([5]; repeated oropharyngeal administration, naïve mice (data not shown)): well tolerated
- tolerability (no inflammatory response in murine airways) ([5]; single oropharyngeal administration, naïve mice): well tolerated
- Ashcroft score based on Sirius red staining ([6]; d21): significantly ameliorated
- expression of Col4α1 (lung homogenate) ([6]; d21): significantly ameliorated
- expression of Fn1 (lung homogenate) ([6]; d21): significantly ameliorated
- lung airway compliance ([6]; d21, FlexiVent): significantly ameliorated
- lung airway elastance ([6]; d21, FlexiVent): significantly ameliorated
- pro-fibrotic and pro-inflammatory pathways [7]: inhibits
